From patent publication US12251382B2, “Substituted amino-pyrimidine compound for use in a method for treatment and prevention of multiple sclerosis” (Merck Patent GmbH, priority 2018, dated 2025)
Entries after “also recorded” stand apart in the source; their conditions may differ. Like-named read-outs stand apart in the source and are kept apart here.

How the values were obtained:
[1] = for Overall safety and tolerability: single doses 25-500 mg, multiple doses 25-200 mg for 14 days
Description: A randomized, double-blind, placebo-controlled trial conducted in healthy volunteers. […] Written informed consent was obtained from all participants.
Following completion of each dose cohort in both parts of the study, a safety monitoring committee (SMC) decided whether protocol-defined dose escalation to the next level was appropriate to a maximum of 500 mg in Part 1, or to the highest safe and tolerated dose or highest dose from Part 1 in Part 2, based on all safety data and other available data (including PK and PD data). […] Other safety data (e.g., hematology parameters) were also taken into consideration for dose escalation decisions as a matter of course.
TEAEs and SAEs were recorded from time of informed consent until study completion. […] Assessment of severity considered the Toxicity Grading Scale for Healthy Adult and Adolescent Volunteers Enrolled in Preventative Vaccine Clinical Trials. Data were summarized using descriptive statistics.

B cells = details: in vitro and ex vivo; cited from earlier work

## C=CC(=O)N1CCC(CNc2ncnc(N)c2-c2ccc(Oc3ccccc3)cc2)CC1 [Evobrutinib, 1-(4-(((6-amino-5-(4-phenoxyphenyl)pyrimidin-4-yl)amino)methyl)piperidin-1-yl)prop-2-en-1-one]
[1]; Part 1, single dose 100 mg
  Dry eye, subjects: 0 (0.0) n (%)
  Dry mouth, subjects: 0 (0.0) n (%)
  Dyspepsia, subjects: 0 (0.0) n (%)
  Excoriation, subjects: 0 (0.0) n (%)
  Headache, subjects: 0 (0.0) n (%)
  Lipase increased, subjects: 0 (0.0) n (%)
  Multiple injuries, subjects: 0 (0.0) n (%)
  Nasal congestion, number of TEAEs: [1]
  Nasal congestion, subjects: 1 (16.7) n (%)
  Noncardiac chest pain, subjects: 0 (0.0) n (%)
  Odynophagia, subjects: 0 (0.0) n (%)
  Overall total TEAEs, subjects: 1 (16.7) n (%)
  Overall total, number of TEAEs: [1]
  Upper respiratory tract infection, subjects: 0 (0.0) n (%)
[1]; Part 1, single dose 200 mg
  Abdominal pain, subjects: 0 (0.0) n (%)
  Amylase increased, number of TEAEs: [1]
  Amylase increased, subjects: 1 (16.7) n (%)
  Application site pruritus (due to ECG stickers), subjects: 0 (0.0) n (%)
  Back pain, subjects: 0 (0.0) n (%)
  Contact dermatitis, subjects: 0 (0.0) n (%)
  Dizziness, number of TEAEs: [1]
  Dizziness, subjects: 1 (16.7) n (%)
  Dry eye, subjects: 0 (0.0) n (%)
  Dry mouth, subjects: 0 (0.0) n (%)
  Dyspepsia, subjects: 0 (0.0) n (%)
  Excoriation, number of TEAEs: [1]
  Excoriation, subjects: 1 (16.7) n (%)
  Headache, subjects: 0 (0.0) n (%)
  Lipase increased, number of TEAEs: [1]
  Lipase increased, subjects: 1 (16.7) n (%)
  Multiple injuries, subjects: 0 (0.0) n (%)
  Nasal congestion, subjects: 0 (0.0) n (%)
  Noncardiac chest pain, subjects: 0 (0.0) n (%)
  Odynophagia, subjects: 0 (0.0) n (%)
  Overall total TEAEs, subjects: 2 (33.3) n (%)
  Overall total, number of TEAEs: [4]
  Upper respiratory tract infection, subjects: 0 (0.0) n (%)
[1]; Part 1, single dose 350 mg
  Abdominal pain, subjects: 0 (0.0) n (%)
  Amylase increased, subjects: 0 (0.0) n (%)
  Application site pruritus (due to ECG stickers), subjects: 0 (0.0) n (%)
  Back pain, subjects: 0 (0.0) n (%)
  Contact dermatitis, subjects: 0 (0.0) n (%)
  Dizziness, subjects: 0 (0.0) n (%)
  Dry eye, subjects: 0 (0.0) n (%)
  Dry mouth, subjects: 0 (0.0) n (%)
  Dyspepsia, subjects: 0 (0.0) n (%)
  Excoriation, subjects: 0 (0.0) n (%)
  Headache, subjects: 0 (0.0) n (%)
  Lipase increased, subjects: 0 (0.0) n (%)
  Multiple injuries, number of TEAEs: [1]
  Multiple injuries, subjects: 1 (16.7) n (%)
  Nasal congestion, subjects: 0 (0.0) n (%)
  Noncardiac chest pain, subjects: 0 (0.0) n (%)
  Odynophagia, subjects: 0 (0.0) n (%)
  Overall total TEAEs, subjects: 1 (16.7) n (%)
  Overall total, number of TEAEs: [1]
  Upper respiratory tract infection, subjects: 0 (0.0) n (%)
[1]; Part 1, single dose 500 mg
  Abdominal pain, subjects: 0 (0.0) n (%)
  Amylase increased, subjects: 0 (0.0) n (%)
  Application site pruritus (due to ECG stickers), subjects: 0 (0.0) n (%)
  Back pain, subjects: 0 (0.0) n (%)
  Contact dermatitis, subjects: 0 (0.0) n (%)
  Dizziness, subjects: 0 (0.0) n (%)
  Dry eye, number of TEAEs: [1]
  Dry eye, subjects: 1 (16.7) n (%)
  Dry mouth, subjects: 0 (0.0) n (%)
  Dyspepsia, subjects: 0 (0.0) n (%)
  Excoriation, subjects: 0 (0.0) n (%)
  Headache, number of TEAEs: [2]
  Headache, subjects: 1 (16.7) n (%)
  Lipase increased, subjects: 0 (0.0) n (%)
  Multiple injuries, subjects: 0 (0.0) n (%)
  Nasal congestion, subjects: 0 (0.0) n (%)
  Noncardiac chest pain, subjects: 0 (0.0) n (%)
  Odynophagia, number of TEAEs: [1]
  Odynophagia, subjects: 1 (16.7) n (%)
  Overall total TEAEs, subjects: 2 (33.3) n (%)
  Overall total, number of TEAEs: [3]
  Upper respiratory tract infection, subjects: 0 (0.0) n (%)
[1]; Part 1, single dosing, all evobrutinib doses
  Subjects with TEAEs: 25%
[1]; either part of the study
  TEAEs leading to discontinuation; trends in vital signs, ECGs, laboratory values, IgG subclasses: no TEAEs leading to discontinuation and no clinically significant trends in vital signs, ECGs, laboratory values or immunoglobulin G (IgG) subclasses
[1]; one subject, 350 mg single ascending dose cohort, 7 days after administration
  SAE of multi-trauma due to an automobile accident, relation to study drug: unrelated to the study drug
[1]; single and multiple dosing (Parts 1 and 2)
  Deaths or serious adverse events (SAEs) related to treatment: no deaths or serious adverse events (SAEs) related to treatment
[1]
  Overall safety and tolerability: well tolerated
[1]; listed as evobrutinib
  Overall safety and tolerability: safe and well tolerated and no non-tolerated dose could be defined; also recorded: safe and well tolerated
B cells
  B-cell activation and maturation: inhibits B-cell activation and maturation from naïve to antigen-activated B cells
